Assay results published in patent US20050271661A1, “Methods and reagents for the treatment of immunoinflammatory disorders” (priority 2004, published 2005).
Each block holds one compound with its values, some of them ahead of it.

Tests used:
[1] = test system: NFκB; test: NFκB-dependent transcription, NFκB luciferase reporter in CCRF-CEM cells activated with PI; type: cell-based
Text: (§1) Reporter plasmids were transfected into CCRF-CEM cells using nucleofection (Nucleofector; AMAXA, Germany). Reporter plasmids expressing firefly luciferase (Luc) were purchased from Stratagene. pNFAT-Luc contains four NFAT binding sites; pGRE-Luc contains four GRE sites, and pAP1-Luc contains seven AP1 binding sites. The NFκB luciferase reporter, p(IL6κB)3-50hu.IL6-luc+, contains three NFκB sites and was a generous gift of Dr. De Bosscher (University of Ghent, Belgium). 10^7 cells suspended in 100 μL Amaxa ‘R’ Cell-line solution were transferred to a cuvette. One μL (1 μg/μL) of solution containing reporter plasmid (firefly luciferase) and control plasmid (pRL-TK-Renilla) (Renilla luciferase) (Promega) at a ratio of (10:1) were added to the cell suspension. […] After transfection the cells were suspended in 200 μL medium, allowed to recover for an hour, equal volume of medium containing 2× drugs were added and incubated at 37° C. for 30 min. Then the cells were stimulated with PI for another five hours. The luciferase activity of each of plasmid and control Renilla-plasmid were measured as per the procedure in Promega Luciferase assay kit.
NFκB-dependent transcription was measured by transient transfection of an NFκB reporter plasmid into CCRF-CEM cells and subsequent activation with PI.

[2] = test system: IκB; test: IκB degradation western blot, PI-activated primary T cells; type: cell-based, human; conditions: PI 30 min
Method: (§2) Purified primary human T-cells (10^7 T-cells at 1×10^6 cells/ml) were pretreated with various drugs for 30 min at 37° C. and then stimulated for 30 minutes with PMA and ionomycin. Cells were then pelleted and extracted with 2× protein load dye (Invitrogen, NP0008). Total cell lysates were boiled and centrifuged before loading. 10-15 μl of lysate (approximately 250,000 cells) per lane was run on a 10-12% Tris-Bis gel, or a 3-8% Tris-Acetate gel (precast from Invitrogen). Proteins were immunoblotted onto immobilon PVDF membrane (Millipore) for 30 min using an Owl Semi-Dry electroblotting system. Membranes were blocked with 4% milk for two hours and then incubated with appropriate primary antibodies, washed three times and then probed with secondary antibodies. Chemi-glow™ (Alpha Innotech) chemilluminescent detection solutions were added and image visualized and captured using an Alpha Imager 8900 (Alpha Innotech). NFAT1 was visualized using an antibody obtained from BD Transduction Laboratory (#610703). IκB-alpha was visualized using an antibody from Santa Cruz Biotechnology (#sc371). Mitogen activated protein kinases (MAPK) were visualized using the following antibodies obtained from Cell Signaling: ERK p44/p42 (phospho, #9101; total, #9102); p38 (phospho, #9211; total, #9212); and JNK/SAPK (phospho, #9251; total, #9252).
Primary T cells were activated in vitro with PI (30 min) and extracted for western blot analysis.

[3] = test system: ERK1/2; test: ERK1/2 phosphorylation western blot, activated primary T cells; type: cell-based, human; conditions: highest dose tested: cyclosporine 1 μM, prednisolone 3 μM, amoxapine 30 μM, paroxetine 30 μM
Method: as §2
(§3) Purified primary T cells were activated for 30 minutes and extracted for western blot analysis. Activation of each MAPK was tracked using phosphospecific antibodies to a regulatory site on each type of MAPK, normalized by the measurement of total amounts of each MAPK species (FIGS. 4A-4C).

[4] = test system: p38; test: p38 phosphorylation western blot, activated primary T cells; type: cell-based, human; conditions: primary T cells activated 30 minutes
Method: as §2, §3

[5] = test system: NFAT; test: NFAT nuclear translocation by immunofluorescence in PI-activated CCRF-CEM cells; type: cell-based
Text: NFAT1 was visualized using an antibody obtained from BD Transduction Laboratory (#610703).

[6] = test system: NFAT; test: NFAT-dependent transcription, NFAT luciferase reporter in CCRF-CEM cells activated with PI; type: cell-based
Text: as §1

[7] = test system: AP1; test: AP1-dependent transcription, AP1 luciferase reporter in CCRF-CEM cells activated with PI; type: cell-based
Text: as §1

[8] = test system: NFAT; test: NFAT dephosphorylation band shift on western blot, PMA/ionomycin-activated primary T cells; type: cell-based, human; conditions: up to 3 μM
Method: as §2, with “Mitogen activated protein kinases (MAPK) were visualized using the following antibodies obtained from Cell Signaling: ERK p44/p42 (phospho, #9101; total, #9102); p38 (phospho, #9211; total, #9212); and JNK/SAPK (phospho, #9251; total, #9252).” left out
T cells were isolated from the buffy coat of male donors between the ages of 35 to 50 years. These T cells were activated in vitro with PMA/ionomycin (PI) for 30 minutes and the phosphorylation of NFAT analyzed by mobility shift on a western blot. […]

[9] = test system: JNK; test: JNK activation (phosphorylation) western blot, activated primary T cells; type: cell-based, human; conditions: primary T cells activated 30 minutes
Method: as §2, with “#9252). […]” for “#9252).”

[10] = test system: NFκB; conditions: activated CCRF-CEM cells, p65

Structure (SMILES): O=C(/C=C/c1ccc(O)c(O)c1)OCCc1ccccc1 [CAPE, caffeic acid phenethyl ester]
- inhibition of NFκB-dependent transcription ([1]; CCRF-CEM cells, NFκB reporter, PI): inhibited

Structure (SMILES): Clc1ccc2c(c1)C(N1CCNCC1)=Nc1ccccc1O2 [amoxapine]
- concentration at which IκB stabilization effects begin [2]: 25 µM
- prevention of phosphorylation of ERK1/2 [3]: not effective
- effect in the p38 assay [4]: no effect

- IC50 ([5]; Homo sapiens, read-out: IC50, inhibition of NFAT translocation): 30 µM
- IC50 ([6]; Homo sapiens, CCRF-CEM cells, NFAT reporter, read-out: IC50, inhibition of PI-stimulated NFAT transcription): 9 µM
- IC50 ([7]; CCRF-CEM cells, AP1 reporter, PI): 20 to 30 µM
Structure (SMILES): Fc1ccc([C@@H]2CCNC[C@H]2COc2ccc3c(c2)OCO3)cc1 [paroxetine]
- concentration at which IκB stabilization effects begin [2]: 15 µM
- prevention of phosphorylation of ERK1/2 [3]: not effective
- concentration above which some phospho-p38 inhibition is seen [4]: above 10 μM

Structure (SMILES): C[C@]12C=CC(=O)C=C1CC[C@@H]1[C@@H]2[C@@H](O)C[C@@]2(C)[C@H]1CC[C@]2(O)C(=O)CO [prednisolone]
- effect on NFAT dephosphorylation [8]: no effect
- activity in NFAT translocation assay [5]: not active
- inhibition of PI-stimulated NFAT transcription ([6]; even at high doses): no strong inhibition
- effect on IκB degradation [2]: no effect
- inhibition of NFκB-dependent transcription ([1]; at 1 μM): 30%
- prevention of phosphorylation of ERK1/2 [3]: not effective
- effect in the p38 assay [4]: no effect
- effect on JNK [9]: no effect
- inhibition of AP1-dependent transcription ([7]; at 300 nM): 30%
- effect on NFκB translocation [10]: no effect
